What was measured:
[1] = (§1) The drug is tested on Z-019 corresponding to rat gut metagenome with ENA study accession number: PRJEB37062 and ENA sample accession number: ERS12561818 for biotransformation under anaerobic condition. The drug concentrations were measured over 9 timepoints collected between 0 and 24 hours of incubation by liquid-chromatography-coupled mass spectrometry (LC–MS); settings: 2 µM
[2] = as §1, with “Z-014” for “Z-019”, “ERS12561814” for “ERS12561818”; settings: 2 µM
[3] = as §1, with “on Z-009” for “on Z-019”, “to pig” for “to rat”, “number: ERS12561809” for “number: ERS12561818”; settings: 2 µM
[4] = as §1, with “on Z-003” for “on Z-019”, “to pig” for “to rat”, “number: ERS12561803” for “number: ERS12561818”; settings: 2 µM
[5] = as §1, with “on Z-002” for “on Z-019”, “to rabbit” for “to rat”, “number: ERS12561802” for “number: ERS12561818”; settings: 2 µM
[6] = as §1, with “on WLS-098” for “on Z-019”, “to human” for “to rat”, “number: ERS12561754” for “number: ERS12561818”; settings: 2 µM
[7] = as §1, with “on WLS-006” for “on Z-019”, “to human” for “to rat”, “number: ERS12561741” for “number: ERS12561818”; settings: 2 µM
[8] = human gut metagenome, 24 h, 2 µM
[9] = human gut metagenome, 24 h, 2 µM; remark: listed apart in the source
[10] = human gut metagenome, 24 h, 2 µM; remark: listed apart in the source
[11] = human gut metagenome, 24 h, 2 µM; remark: listed apart in the source
[12] = human gut metagenome, 24 h, 2 µM; remark: listed apart in the source
[13] = human gut metagenome, 24 h, 2 µM; remark: listed apart in the source
[14] = human gut metagenome, 24 h, 2 µM; remark: listed apart in the source
[15] = human gut metagenome, 24 h, 2 µM; remark: listed apart in the source
[16] = human gut metagenome, 24 h, 2 µM; remark: listed apart in the source
[17] = human gut metagenome, 24 h, 2 µM; remark: listed apart in the source
[18] = human gut metagenome, 24 h, 2 µM; remark: listed apart in the source
[19] = human gut metagenome, 24 h, 2 µM; remark: listed apart in the source
[20] = human gut metagenome, 24 h, 2 µM; remark: listed apart in the source
Note: call rule not given here.

| SMILES | Bacterial Biotransformation [1] | Bacterial Biotransformation [2] | Bacterial Biotransformation [3] | Bacterial Biotransformation [4] | Bacterial Biotransformation [5] | Bacterial Biotransformation [6] | Bacterial Biotransformation [7] | Bacterial Biotransformation [8] | Bacterial Biotransformation [9] | Bacterial Biotransformation [10] | Bacterial Biotransformation [11] | Bacterial Biotransformation [12] | Bacterial Biotransformation [13] | Bacterial Biotransformation [14] | Bacterial Biotransformation [15] | Bacterial Biotransformation [16] | Bacterial Biotransformation [17] | Bacterial Biotransformation [18] | Bacterial Biotransformation [19] | Bacterial Biotransformation [20] |
| --- | --- | --- | --- | --- | --- | --- | --- | --- | --- | --- | --- | --- | --- | --- | --- | --- | --- | --- | --- | --- |
| Cc1ccc(S(=O)(=O)NC(=O)NN2CC3CCCC3C2)cc1 (stereo not given) [GLICLAZIDE] | Compound NOT metabolized | Compound NOT metabolized | Compound metabolized | Compound metabolized | Compound metabolized | Compound metabolized | Compound metabolized | Compound metabolized | Compound metabolized | Compound metabolized | Compound metabolized | Compound metabolized | Compound metabolized | Compound metabolized | Compound metabolized | Compound metabolized | Compound NOT metabolized | Compound metabolized | Compound metabolized | Compound metabolized |
| CCN(CC)CCOCCOC(=O)C1(c2ccccc2)CCCC1.O=C(O)CC(O)(CC(=O)O)C(=O)O [CARBETAPENTANE CITRATE] | Compound NOT metabolized | Compound NOT metabolized | Compound metabolized | Compound metabolized | Compound metabolized | Compound metabolized | Compound metabolized | Compound metabolized | Compound metabolized | Compound metabolized | Compound metabolized | Compound metabolized | Compound metabolized | Compound metabolized | Compound metabolized | Compound metabolized | Compound metabolized | Compound metabolized | Compound metabolized | Compound metabolized |
| COc1ccc2c3c1O[C@H]1C[C@@H](O)C=C[C@@]31CCN(C)C2 [GALANTAMINE] | Compound NOT metabolized | Compound NOT metabolized | Compound NOT metabolized | Compound NOT metabolized | Compound metabolized | Compound metabolized | Compound NOT metabolized | Compound NOT metabolized | Compound NOT metabolized | Compound NOT metabolized | Compound NOT metabolized | Compound NOT metabolized | Compound NOT metabolized | Compound NOT metabolized | Compound metabolized | Compound NOT metabolized | Compound NOT metabolized | Compound metabolized | Compound NOT metabolized | Compound metabolized |
| Br.CN(C)CCCC1(c2ccc(F)cc2)OCc2cc(C#N)ccc21 (stereo not given) [CITALOPRAM HYDROBROMIDE] | Compound NOT metabolized | Compound NOT metabolized | Compound metabolized | Compound NOT metabolized | Compound metabolized | Compound metabolized | Compound metabolized | Compound NOT metabolized | Compound metabolized | Compound NOT metabolized | Compound NOT metabolized | Compound metabolized | Compound metabolized | Compound NOT metabolized | Compound metabolized | Compound metabolized | Compound NOT metabolized | Compound metabolized | Compound metabolized | Compound metabolized |
| CN(C)CCC=C1c2ccccc2C=Cc2ccccc21 [CYCLOBENZAPRINE] | Compound NOT metabolized | Compound NOT metabolized | Compound metabolized | Compound metabolized | Compound metabolized | Compound metabolized | Compound metabolized | Compound metabolized | Compound metabolized | Compound NOT metabolized | Compound metabolized | Compound metabolized | Compound metabolized | Compound NOT metabolized | Compound metabolized | Compound metabolized | Compound metabolized | Compound metabolized | Compound metabolized | Compound NOT metabolized |
| CCN(CC)CC#CCOC(=O)C(O)(c1ccccc1)C1CCCCC1.Cl (stereo not given) [OXYBUTYNIN CHLORIDE] | Compound NOT metabolized | Compound NOT metabolized | Compound metabolized | Compound metabolized | Compound metabolized | Compound metabolized | Compound metabolized | Compound metabolized | Compound NOT metabolized | Compound metabolized | Compound metabolized | Compound metabolized | Compound metabolized | Compound metabolized | Compound metabolized | Compound metabolized | Compound metabolized | Compound metabolized | Compound metabolized | Compound metabolized |
| CN/C(=N/CCSCc1nc[nH]c1C)NC#N [CIMETIDINE] | Compound NOT metabolized | Compound NOT metabolized | Compound NOT metabolized | Compound NOT metabolized | Compound NOT metabolized | Compound metabolized | Compound metabolized | Compound NOT metabolized | Compound NOT metabolized | Compound NOT metabolized | Compound metabolized | Compound metabolized | Compound NOT metabolized | Compound NOT metabolized | Compound metabolized | Compound metabolized | Compound NOT metabolized | Compound metabolized | Compound metabolized | Compound metabolized |
| CC(=O)OCC(=O)[C@@]1(O)[C@@H](C)C[C@H]2[C@@H]3CCC4=CC(=O)C=C[C@]4(C)[C@@]3(F)[C@@H](O)C[C@@]21C [BETAMETHASONE ACETATE] | Compound NOT metabolized | Compound NOT metabolized | Compound metabolized | Compound metabolized | Compound metabolized | Compound metabolized | Compound metabolized | Compound metabolized | Compound metabolized | Compound NOT metabolized | Compound metabolized | Compound metabolized | Compound metabolized | Compound metabolized | Compound metabolized | Compound metabolized | Compound metabolized | Compound metabolized | Compound metabolized | Compound metabolized |
| CO[C@]12C[C@@H](COC(=O)c3cncc(Br)c3)CN(C)[C@@H]1Cc1cn(C)c3cccc2c13 [NICERGOLINE] | Compound NOT metabolized | Compound metabolized | Compound metabolized | Compound metabolized | Compound metabolized | Compound metabolized | Compound metabolized | Compound NOT metabolized | Compound NOT metabolized | Compound NOT metabolized | Compound NOT metabolized | Compound NOT metabolized | Compound metabolized | Compound NOT metabolized | Compound NOT metabolized | Compound NOT metabolized | Compound NOT metabolized | Compound metabolized | Compound NOT metabolized | Compound metabolized |

Reference: ChEMBL document CHEMBL5724914, “Linking interpersonal differences in gut microbiota composition and drug biotransformation activity” (2024)
